In this experiment the target is T1, AdgB (Variovorax paradoxus, UniProt T1X8R6).
T1 sequence (T1X8R6 28-388 limits assumed): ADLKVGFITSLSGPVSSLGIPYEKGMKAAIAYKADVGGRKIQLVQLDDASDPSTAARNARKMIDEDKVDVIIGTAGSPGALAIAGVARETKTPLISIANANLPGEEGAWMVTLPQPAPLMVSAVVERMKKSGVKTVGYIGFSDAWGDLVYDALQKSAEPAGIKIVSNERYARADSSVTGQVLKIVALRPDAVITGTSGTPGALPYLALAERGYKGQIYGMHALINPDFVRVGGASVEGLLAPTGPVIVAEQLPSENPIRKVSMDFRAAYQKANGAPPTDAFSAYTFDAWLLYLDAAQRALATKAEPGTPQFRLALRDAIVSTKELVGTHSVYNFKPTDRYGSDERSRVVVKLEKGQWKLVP
In words: isothermal titration calorimetry. Type of experiment: binding.
`O=C(O)Cc1c[nH]c2cccc(Cl)c12` [4-Cl-IAA]: binding was characterised by a dissociation constant (Kd) of 8.4 µM.

The compound `O=C(O)CCCc1c[nH]c2ccccc12` [IBA] gave a Kd of 25 µM.

Take `O=C(O)CCc1c[nH]c2ccccc12` [IPA]: binding was characterised by a dissociation constant (Kd) of 1.6 µM.

In turn, `O=C(O)Cc1cccc2ccccc12` [NAA] gave a Kd of 20 µM.

The record behind these values is publication doi:10.1101/2022.11.01.514793v1 (biorxiv, 2022).
